Data taken from ChEMBL document CHEMBL1154010, “Aziridine alkaloids as potential therapeutic agents” (Eur J Med Chem, 2009).
pIC50, pKi: −log10 of the molar value. Converted amounts (≈) assume the structure as drawn.

Experiments:
CCRF S-180 [1] = assay: Antitumor activity against mouse S180 cells implanted in ip dosed ddY mouse assessed as tumor volume after 7 days; format: functional
Mus musculus = assay: Toxicity in ip dosed ddY mouse bearing mouse S180 cells; format: organism-based, CCRF S-180; details: in vivo
HCT-116 = assay: Cytotoxicity against human HCT116 cells; format: functional, cell-based
[2] = Antitumor activity against mouse mammary cancer cell implanted in C3H/An mouse assessed as inhibition of tumor growth at 0.5 mg/day for 14 days; format: functional, Cancer cell lines
[3] = Inhibition of sunflower S-adenosyl-L-methionine-C-24 methyltransferase; parameters: species or system Helianthus annuus
[4] = Inhibition of trypsin
Cathepsin B = Cathepsin B (Homo sapiens, UniProt P07858); assay: Inhibition of cathepsin B
[5] = target: Procathepsin L (Homo sapiens) (UniProt P07711); assay: Inhibition of cathepsin L
Sequence of Procathepsin L (Homo sapiens) (P07711 114-333 limits assumed): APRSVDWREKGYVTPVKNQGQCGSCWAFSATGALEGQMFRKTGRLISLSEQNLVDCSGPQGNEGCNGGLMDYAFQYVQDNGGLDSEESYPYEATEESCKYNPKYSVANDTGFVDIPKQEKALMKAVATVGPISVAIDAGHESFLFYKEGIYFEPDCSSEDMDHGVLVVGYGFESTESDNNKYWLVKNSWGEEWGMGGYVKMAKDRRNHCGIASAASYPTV

[6] = Inhibition of Pepsin
[7] = Antitumor activity against mouse EAC cells xenografted in rat; format: functional, Ehrlich
CCRF S-180 [8] = assay: Antitumor activity against mouse S180 cells xenografted in rat; format: functional
Aspartase = Aspartase (Escherichia coli, UniProt Q59388); assay: Inhibition of Escherichia coli aspartase
Sequence of Aspartase (Q59388 whole entry): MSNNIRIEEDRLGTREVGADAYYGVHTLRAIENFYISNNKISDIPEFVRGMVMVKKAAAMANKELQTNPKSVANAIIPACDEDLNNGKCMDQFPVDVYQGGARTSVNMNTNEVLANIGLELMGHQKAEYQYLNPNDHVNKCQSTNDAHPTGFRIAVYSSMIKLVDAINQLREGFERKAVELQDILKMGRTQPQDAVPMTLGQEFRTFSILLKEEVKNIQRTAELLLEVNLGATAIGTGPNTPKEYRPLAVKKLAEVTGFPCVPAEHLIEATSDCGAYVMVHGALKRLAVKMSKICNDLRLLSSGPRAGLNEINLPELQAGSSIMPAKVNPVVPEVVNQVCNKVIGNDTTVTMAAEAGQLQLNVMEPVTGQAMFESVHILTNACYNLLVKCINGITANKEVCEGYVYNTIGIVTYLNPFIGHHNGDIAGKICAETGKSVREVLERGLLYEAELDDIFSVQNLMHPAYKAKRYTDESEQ

[9] = target: Fumarate hydratase, mitochondrial (Sus scrofa, UniProt P10173); assay: Inhibition of pig heart fumarase
Sequence of Fumarate hydratase, mitochondrial (P10173 whole entry): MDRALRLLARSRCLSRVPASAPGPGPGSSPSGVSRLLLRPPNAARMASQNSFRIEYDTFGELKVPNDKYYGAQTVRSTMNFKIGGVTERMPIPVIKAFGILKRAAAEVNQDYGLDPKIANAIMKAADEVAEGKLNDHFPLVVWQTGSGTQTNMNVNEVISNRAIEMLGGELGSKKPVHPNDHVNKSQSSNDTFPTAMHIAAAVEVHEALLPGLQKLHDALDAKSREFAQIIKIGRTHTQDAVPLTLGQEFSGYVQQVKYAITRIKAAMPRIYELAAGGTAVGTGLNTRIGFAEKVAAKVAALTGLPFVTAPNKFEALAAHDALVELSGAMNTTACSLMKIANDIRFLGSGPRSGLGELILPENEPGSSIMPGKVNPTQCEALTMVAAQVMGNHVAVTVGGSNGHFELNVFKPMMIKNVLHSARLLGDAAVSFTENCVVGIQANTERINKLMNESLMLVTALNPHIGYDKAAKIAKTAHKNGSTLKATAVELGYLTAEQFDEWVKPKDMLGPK

COC1=C(C)C(=O)C2=C(C1=O)[C@@H](COC(N)=O)[C@@]1(OC)[C@@H]3[C@H](CN21)N3C (some centres not stated) [N-METHYL-MITOMYCIN A]
ED50 (CCRF S-180 [1]): 1.3 µg/mL (≈ 3.58 µM)
LD50 (Mus musculus): 5 µg/mL

COC(=O)[C@@H]1N=C1/C=C\CCCCCCCCC/C=C(/Cl)Br
pIC50 (HCT-116): 4.87

COC1=C(C)C(=O)C2=C(C1=O)[C@H](COC(N)=O)[C@@]1(OC)[C@@H]3[C@H](CN21)N3C (some centres not stated) [MITOMYCIN J]
ED50 (CCRF S-180 [1]): 10 µg/mL (≈ 27.5 µM)
LD50 (Mus musculus): 9 µg/mL

CO[C@@]12[C@H](COC(N)=O)C3=C(C(=O)C(C)=C(N)C3=O)N1C[C@H]1[C@@H]2N1C (some centres not stated) [PORFIROMYCIN]
ED50 (CCRF S-180 [1]): 22 µg/mL (≈ 63.2 µM)
LD50 (Mus musculus): 57 µg/mL

COC1=C(C)C(=O)C2=C(C1=O)[C@@H](COC(N)=O)[C@@]1(OC)[C@H]3N[C@H]3CN21 [MITOMYCIN A]
ED50 (CCRF S-180 [1]): 1.1 µg/mL (≈ 3.15 µM)
LD50 (Mus musculus): 2.1 µg/mL

COC(=O)[C@H]1N=C1/C=C/CCCCCCCCCC=C(Cl)Cl
pIC50 (HCT-116): 4.61

CCCCCCCCCCCCC/C=C/C1=N[C@@H]1C(=O)OC
pIC50 (HCT-116): 4.74

CO[C@@]12[C@H](COC(N)=O)C3=C(C(=O)C(C)=C(N)C3=O)N1C[C@@H]1N[C@@H]12 [MITOMYCIN]
ED50 (CCRF S-180 [1]): 4.4 µg/mL (≈ 13.2 µM)

C=C1C2=C(C(=O)C(C)=C(N)C2=O)N2C[C@H]3[C@H](N3C)[C@]12OC (some centres not stated) [MITOMYCIN K]
ED50 (CCRF S-180 [1]): 35 µg/mL (≈ 122 µM)
LD50 (Mus musculus): 22 µg/mL

CC(=O)O[C@H]1CC[C@@]2(C)C(=CC[C@@H]3[C@@H]2CC[C@]2(C)C(=O)C(CN4CC4)C[C@@H]32)C1 (some centres not stated)
inhibition (INH) [2]: 32%

C[C@H](CCC1NC1(C)C)[C@H]1CC[C@@]2(C)C3=C(CC[C@]12C)[C@@]1(C)CC[C@H](O)C(C)(C)[C@@H]1CC3 (mixture of isomers)
pKi [3]: 8.52

COc1ccc2c(c1)CC[C@@H]1[C@@H]2CC[C@]2(C)C(=O)C(N3CC3)C[C@@H]12 (some centres not stated)
inhibition (INH) [2]: 17%

C=C1C2=C(C(=O)C(C)=C(OC)C2=O)N2C[C@H]3[C@H](N3C)[C@]12O (some centres not stated) [MITOMYCIN H]
ED50 (CCRF S-180 [1]): 6.8 µg/mL (≈ 23.6 µM)
LD50 (Mus musculus): 12 µg/mL

CC[C@H](NC(=O)C[C@H](O)[C@H](CC(C)C)NC(=O)[C@H](CC(C)C)NC(=O)[C@@H]1N[C@H]1C(=O)O)C(=O)N[C@H](/C=C/C(=O)O)CCCN=C(N)N [MIRAZIRIDINE A]
INH [4]: 6 ×10⁻⁵ M
pIC50 (Cathepsin B): 5.68
INH (Cathepsin B): 1.5 ×10⁴ /M/s
INH [5]: 1 ×10⁶ /M/s
INH [6]: 1.4 ×10⁻⁸ M

CC1(C)CC(CCC(=O)ONP(=O)(N2CC2)N2CC2)CC(C)(C)N1O
Activity [7]: 90%
Activity (CCRF S-180 [8]): 93%

CC1(C)CC(CCC(=O)ONP(=O)(N2CC2(C)C)N2CC2(C)C)CC(C)(C)N1O (configuration not stated)
Activity [7]: 90%
Activity (CCRF S-180 [8]): 93%

O=C(O)[C@H]1N[C@@H]1C(=O)O
pKi (Aspartase): 4.26
pKi [9]: 7.10

CC1(C)CC(C(=O)ONP(=O)(N2CC2(C)C)N2CC2(C)C)CC(C)(C)N1O (configuration not stated)
Activity (CCRF S-180 [8]): 93%

CC(=O)O[C@H]1C(=O)[C@@]2(C)C([C@H](OC(=O)c3ccccc3)[C@]3(O)C[C@H](OC(=O)[C@@H](O)[C@H](CC(=O)c4ccccc4)c4ccco4)C(C)=C1C3(C)C)[C@]1(OC(=O)N3CC3)CO[C@@H]1C[C@@H]2O (some centres not stated)
pIC50 (HCT-116): 8.16
